Results reported in patent US20050170485A1, “Culture having phenol oxidase-like activity” (priority 2002, published 2005).

Assays:
Format in all cases: biochemical
[1] = tested on: culture of Flammulina velutipes strain IFO 30601; experiment: Decolorization / oxidative degradation / oxidative polymerization of pigments and lignin by the culture; settings: for reaction of the substrate catalyzed by the culture (in words): neutral conditions; for Specific Activity, Culture: reaction pH 7.0, 25° C., without sign = degradation or decolorization, minus = polymerization activity
Source text: The decolorization activity on the respective dyes can be evaluated by measuring as the dye, Evans' Blue, Acid Blue 80, Remazol Brilliant Blue R and Acid Violet 17 in the step c) for their absorbance at 600 nm, 600 nm, 600 nm and 550 nm respectively. In addition, regarding the lignin, the oxidative degradation activity on the respective dyes can be evaluated by measuring the absorbance at 450 nm in the step c). The oxidative polymerization activity on the respective dyes can be evaluated by measuring as the dye, Indigo Carmine and Natural Orange 6 in the step c) for their absorbance at 600 nm and 450 nm respectively.
Next, chemical changes of various substrates generated by the action of the culture for the substrate specificity of the culture obtained in (2) of Example 1 was examined by determining a change in the absorbance of the buffer containing each substrate.
As the substrate, commercially available pigments (Evans' Blue, Acid Blue 80, Remazol Brilliant Blue R, Indigo Carmine, Acid Violet 17, Natural Orange) and lignin (trade name: Lignin Alkali, manufactured by Tokyo Kasei) were used.
(§1) Concretely, 950 μl of 105.3 mM sodium phosphate buffer (pH 7.0) containing a substrate adjusted to have a final concentration as shown in Table 2 was pre-incubated at 25° C. for 5 minutes. Next, 50 μl of the culture solution was added to the resulting product, and thereafter, the mixture was reacted in a cuvette. The absorbance for each substrate was determined at a measuring wavelength with a spectrophotometer (manufactured by Shimadzu Corporation, trade name: UV-2450). For the comparison, the examination was also made for bilirubin oxidase from a strain belonging to the genus Myrothecium in the same manner by replacing the above-mentioned buffer with 105.3 mM Tris-HCl buffer (pH 8.0).
(§2) Here, 1 U (unit) of the activity was defined as an amount for increasing the absorbance by 1 per one minute. In Table 3, a specific activity shown without a sign indicates degradation activity or decolorization activity, and a specific activity shown with—(minus) indicates polymerization activity.

[2] = target: T1, bilirubin oxidase from a strain belonging to the genus Myrothecium (Albifimbria verrucaria, UniProt Q12737); experiment: Decolorization / degradation / polymerization of pigments and lignin by bilirubin oxidase (comparison); settings: reaction pH 8.0; without sign = degradation or decolorization, minus = polymerization activity
T1 sequence (Q12737 39-572): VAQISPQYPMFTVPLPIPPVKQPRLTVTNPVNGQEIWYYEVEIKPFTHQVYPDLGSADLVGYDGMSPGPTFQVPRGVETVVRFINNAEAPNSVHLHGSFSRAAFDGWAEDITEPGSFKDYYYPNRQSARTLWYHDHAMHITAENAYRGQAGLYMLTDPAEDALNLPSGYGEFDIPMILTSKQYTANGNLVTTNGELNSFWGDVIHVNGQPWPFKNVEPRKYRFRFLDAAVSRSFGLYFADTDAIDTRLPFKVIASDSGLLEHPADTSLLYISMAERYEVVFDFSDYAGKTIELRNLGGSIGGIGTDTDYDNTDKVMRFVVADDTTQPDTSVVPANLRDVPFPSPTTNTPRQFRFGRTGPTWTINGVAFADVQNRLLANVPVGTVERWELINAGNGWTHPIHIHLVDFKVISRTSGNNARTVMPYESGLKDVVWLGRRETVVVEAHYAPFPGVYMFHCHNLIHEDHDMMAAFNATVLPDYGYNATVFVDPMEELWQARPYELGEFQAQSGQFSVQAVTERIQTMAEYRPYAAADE
Method: as §1, §2

[3] = tested on: culture of Flammulina velutipes strain IFO 30601; experiment: Oxidative coupling reaction with 4-aminoantipyrine by the culture; settings: for activity of the culture for the substrate in words, oxidative coupling reaction: pH 7.0; for Specific Activity, Culture (oxidative coupling with 4-aminoantipyrine): reaction pH 7.0, 25° C., substrate 2.0 mM
Method: Next, the oxidative coupling reaction of the culture obtained in (2) in Example 1 mentioned above was determined by using color development as an index by the oxidative condensation of the substrate (hydrogen donor) with 4-aminoantipyrine, catalyzed by the culture of the present invention.
As the hydrogen donors, there were used phenolic compounds (phenol, 2-methoxyphenol, 2,6-dimethoxyphenol, catechol, resorcinol, hydroquinone, pyrogallol, gallic acid, propyl gallate, 1-naphthol, catechin), aminophenolic compounds (o-aminophenol, m-aminophenol, p-aminophenol), diaminophenolic compounds (o-phenylenediamine, m-phenylenediamine, p-phenylenediamine), and heterocyclic compounds (5-hydroxyindole, 2,6-diaminopyridine).
The above-mentioned culture solution was added to a reaction system containing 4-aminoantipyrine and an optional hydrogen donor. Thereafter, the activity of the culture of the present invention was assayed by determining a change in absorbance at 490 nm for the phenolic compound, the diaminophenolic compound and the heterocyclic compound, or determining a change in absorbance at 450 nm for the aminophenolic compound. As to a substrate hardly soluble in water, there was used one obtained by dissolving the substrate in a small amount of dimethyl sulfoxide and diluting the resulting solution with deionized water to a desired concentration. In Table 4, DMSO is an abbreviation for dimethyl sulfoxide.
(§3) Concretely, 190 μl of 105.3 mM phosphate buffer (pH 7.0) containing 0.4 μmol of a substrate and 4.0 μmol of 4-aminoantipyrine was pre-incubated in wells of a 96-well microplate [manufactured by Corning, Costor (registered trademark) 3368] at 25° C. for 1 minute. Next, 10 μl of the above-mentioned culture solution was added to the resulting mixture, and thereafter, the mixture was incubated for 1 hour. A change in absorbance at 490 nm or 450 nm was determined for the resulting product. One unit (U) of the activity regarding the oxidative coupling reaction was defined as an amount for increasing the absorbance by 1 per one minute.

[4] = tested on: laccase from Japanese lacquer; experiment: Direct oxidation reaction by laccase (comparison); settings: reaction pH 7.0; 2-chloro 1,4-phenylenediamine = 100
Method: (§4) Next, 20 μl of the above-mentioned culture solution was added to the resulting mixture. A change in absorbance at 490 nm, 450 nm or 405 nm was determined for the resulting product, depending on the substrate. Here, 1 U (unit) of the activity regarding the direct oxidative reaction was defined as an amount for increasing the absorbance by 1 per one minute.
(§5) In addition, for the comparison, the substrate specificities at pH 7.0 for laccase from Japanese lacquer and bilirubin oxidase from the strain belonging to the genus Myrothecium were also examined in the same manner.

[5] = tested on: culture of Flammulina velutipes strain IFO 30601; experiment: Direct oxidation reaction by the culture; settings: for activity of the culture for the substrate in words, direct oxidation reaction: pH 7.0; for activity of the culture compared with bilirubin oxidase from the genus Myrothecium, direct oxidation / activity of the culture compared with laccase from Japanese lacquer, direct oxidation: pH 7.0, relative activities of Table 7; for Relative Activity, Culture (direct oxidation): reaction pH 7.0, 2-chloro 1,4-phenylenediamine = 100
Method: Further, the direct oxidation reaction of the culture obtained in the above-mentioned example was determined by using color development due to oxidative polymerization of a substrate generated by the direct action of the culture of the present invention on the substrate as an index.
As the substrates, there were used diaminophenolic compounds (2-chloro 1,4-phenylenediamine, p-phenylenediamine, 2,5-diaminotoluene, N-phenyl-p-phenylenediamine, toluylene-3,4-diamine, m-phenylenediamine), aminophenolic compounds (o-aminophenol, m-aminophenol, 5-amino-o-cresol, p-aminophenol, p-methylaminophenol), and phenolic compounds (2,6-dimethoxyphenol, catechol, resorcinol, hydroquinone, pyrogallol, gallic acid, propyl gallate, 1-naphthol, […], 2,3,4-trihydroxybenzophenone, 2,3,4,4-tetrahydroxybenzophenone). As to a substrate hardly soluble in water, there was used one obtained by dissolving the substrate in a small amount of dimethyl sulfoxide and diluting the resulting solution with deionized distilled water to a desired concentration. In Table 6, %” indicates volume/volume %.
as §4, with “Concretely, 180 μl of 0.89 mM sodium phosphate buffer (pH 7.0) containing […] substrate was pre-incubated in wells of a 96-well microplate [manufactured by Corning, Costor (registered trademark) 3368] at 25° C. for 1 minute. Next,” for “Next,”

[6] = tested on: culture of Flammulina velutipes strain IFO 30601; experiment: Substrate specificity of the culture (phenol oxidase-like activity, Table 1); settings: pH 7.0; determined wavelength per substrate (Table 1)
[7] = target: T2, bilirubin oxidase from the strain belonging to the genus Myrothecium (Albifimbria verrucaria, UniProt Q12737); experiment: Direct oxidation reaction by bilirubin oxidase (comparison); design: concentration or dose not given beside the values; settings: reaction pH 7.0; 2-chloro 1,4-phenylenediamine = 100
T2 sequence (Q12737 39-572): T1 sequence (Q12737 39-572)
Method: as §4, with “Concretely, 180 μl of 0.89 mM sodium phosphate buffer (pH 7.0) containing […] substrate was pre-incubated in wells of a 96-well microplate [manufactured by Corning, Costor (registered trademark) 3368] at 25° C. for 1 minute. Next,” for “Next,”
as §5
The relative activity (%) for each substrate is shown in Table 7, in which the measured value for a case where a representative chemical dye 2-chloro 1,4-phenylenediamine was used as a substrate is 100.

[8] = target: T3, bilirubin oxidase from the strain of the genus Myrothecium (Albifimbria verrucaria, UniProt Q12737); experiment: Oxidative coupling reaction with 4-aminoantipyrine by bilirubin oxidase (comparison); settings: reaction pH 8.0, substrate 2.0 mM
T3 sequence (Q12737 39-572): T1 sequence (Q12737 39-572)
Method: as §3
In addition, for the comparison, the examination was made in the same manner for bilirubin oxidase from the strain of the genus Myrothecium except that the above-mentioned buffer was replaced with 105.3 mM Tris-HCl buffer (pH 8.0).

Structure (SMILES)	specificity of the culture compared with bilirubin oxidase from the genus Myrothecium ([1]; Table 3)	reaction of the substrate catalyzed by the culture (in words) [1]	Specific Activity, Culture [1] [U/mg Protein]	Specific Activity, Bilirubin Oxidase from Strain Belonging to Genus Myrothecium [2] [U/mg Protein]	activity of the culture for the substrate in words, oxidative coupling reaction [3]	Specific Activity, Culture (oxidative coupling with 4-aminoantipyrine) [3] [U/mg Protein]	Relative Activity, Laccase from Japanese Lacquer (direct oxidation) [4] [%]	activity of the culture for the substrate in words, direct oxidation reaction [5]	activity of the culture compared with bilirubin oxidase from the genus Myrothecium, direct oxidation [5]	activity of the culture compared with laccase from Japanese lacquer, direct oxidation [5]	Relative Activity, Culture (direct oxidation) [5] [%]	U (activity of the culture on the substrate) [6] [U]	Relative Activity, Bilirubin Oxidase from Strain Belonging to Genus Myrothecium (direct oxidation) [7] [%]	Specific Activity, Bilirubin Oxidase from Strain Belonging to Genus Myrothecium (oxidative coupling with 4-aminoantipyrine) [8] [U/mg Protein]
Nc1c(S(=O)(=O)[O-])cc(Nc2cccc(S(=O)(=O)CCOS(=O)(=O)[O-])c2)c2c1C(=O)c1ccccc1C2=O.[Na+].[Na+] [Remazol Brilliant Blue R]	significantly differs	strongly catalyzed	0.97	−0.18										
Nc1ccc(O)cc1 [p-Aminophenol]					especially high activity	12.7	109	especially high activity	higher activity	higher activity	235	0.072	70	7.0
Cc1cc(C)c(S(=O)(=O)[O-])c(C)c1Nc1ccc(Nc2c(C)cc(C)c(S(=O)(=O)[O-])c2C)c2c1C(=O)c1ccccc1C2=O.[Na+].[Na+] [Acid Blue 80]			0.30	0.39										
Nc1ccccc1O [o-Aminophenol]					especially high activity	22.4	103	especially high activity	even higher activity	even higher activity	650	0.262	86	15.1
O=C1C=C(O)C(=O)c2ccccc21 [Natural Orange 6]		oxidative polymerization reaction	−0.18	−0.11										
Nc1ccc(N)cc1 [p-Phenylenediamine]						20.9	142	especially high activity	higher activity	higher activity	388	0.101	82	11.1
COc1cccc(OC)c1O [2,6-Dimethoxyphenol]					especially high activity	18.1	21	high activity	even higher activity	even higher activity	250	0.830	69	12.0
Oc1ccccc1O [Catechol]					especially high activity	23.3	2		higher activity	even higher activity	21	0.029	5	16.0
